Source: ChEMBL document CHEMBL6096728, “Simultaneous Induction of Immunogenic Pyroptosis and PD-L1 Downregulation by One Single Photosensitizer for Synergistic Cancer Photoimmunotherapy” (J Med Chem, 2025)
Activity calls are given as the source filed them.

Columns and labels:
[1] = tested on: 4T1; assay: Induction of cell death in mouse 4T1 cells assessed as increase in red fluorescence at 0.5 uM incubated for 24 hrs followed by light irradiation of 20 mW.cm/2 at 400 to 700nm for 10 mins by Calcein-AM/PI staining based analysis; type: functional
[2] = Phototoxicity against human MDA-MB-231 cells preincubated for 24 hrs followed by light irradiation of 20 mW.cm/2 at 400 to 700nm for 10 mins under hypoxia condition by CCK-8 method; type: functional, cell-based; conditions: MDA-MB-231, light or radiation study
[3] = tested on: MDA-MB-231; assay: Induction of cell death in human MDA-MB-231 cells assessed as increase in red fluorescence at 0.5 uM incubated for 24 hrs followed by light irradiation of 20 mW.cm/2 at 400 to 700nm for 10 mins by Calcein-AM/PI staining based analysis; type: functional
[4] = tested on: MDA-MB-231; assay: Induction of cell death in human MDA-MB-231 cells assessed as decrease in green fluorescence at 0.5 uM incubated for 24 hrs followed by light irradiation of 20 mW.cm/2 at 400 to 700nm for 10 mins by Calcein-AM/PI staining based analysis; type: functional
[5] = Phototoxicity against mouse 4T1 cells preincubated for 24 hrs followed by light irradiation of 20 mW.cm/2 at 400 to 700nm for 10 mins under hypoxia condition by CCK-8 method; type: functional, cell-based; conditions: 4T1, light or radiation study
[6] = tested on: 4T1; assay: Induction of cell death in mouse 4T1 cells assessed as decrease in green fluorescence at 0.5 uM incubated for 24 hrs followed by light irradiation of 20 mW.cm/2 at 400 to 700nm for 10 mins by Calcein-AM/PI staining based analysis; type: functional

CCN(CC)c1ccc2nc3c4ccccc4c(=O)cc-3oc2c1 [NILE RED]
inactive: Activity [1] | Activity [3] | Activity [4] | Activity [6]
> 10 µM: IC50 [2] | IC50 [5]
